Key:
[1] = test system: MKN45, IM95, HT-29, A549, HCT116, MDA-MB-231, HepG2 cancer cell lines; assay: Cancer cell migration/infiltration (scratch wound); assay type: cell-based, human; conditions: 24 hours
From the text: (§1) In order to identify the cancer cell migration/infiltration inhibitory effect by the combined treatment with an anti-CD300c monoclonal antibody and sorafenib, MKN45 (human gastric cancer cell line), IM95 (human gastric cancer cell line), HT-29 (human colon cancer cell line), A549 (human lung cancer cell line), HCT116 (human colon cancer cell line), MDA-MB-231 (human breast cancer cell line), and HepG2 (human liver cancer cell line) were used. Into a 6-well plate, 1×10^5 cancer cells were inoculated and incubated for 16 hours, and then each well was wounded by scratching with a pipette tip. The detached cells were removed by washing with medium, and then treated with an anti-CD300c monoclonal antibody for 8 hours. Thereafter, observation was performed for 24 hours. On the basis of the area of the wound formed by scratching with the pipette tip, the migration distance of cancer cells was measured, and this distance was calculated as a percentage (%) to identify the degree of migration inhibition.
as §1, with “migration/invasion” for “migration/infiltration”, “gemcitabine, MKN45,” for “sorafenib, MKN45 (human gastric cancer cell line),”, “inhibition. […]” for “inhibition.”

A549 cells = assay: A549 growth inhibition by chemotherapeutic agents (concentration selection); assay type: cell-based, human; conditions: A549, serial dilutions, 5 days, CCK-8
Description: First, sorafenib was dissolved in dimethyl sulfoxide.
First, gemcitabine was dissolved in dimethyl sulfoxide.
First, paclitaxel was dissolved in […].

[2] = test system: MKN45, IM95, HT-29, A549, HCT116, MDA-MB-231, HepG2 cancer cell lines; assay: Cancer cell apoptosis resistance (rapamycin, Annexin V / PI fluorescence); assay type: cell-based, human; conditions: 8 hours treatment, then rapamycin 48 hours
From the text: (§2) In order to identify whether the combined treatment with an anti-CD300c monoclonal antibody and a chemotherapeutic agent can inhibit cancer cell apoptosis resistance, MKN45 (human gastric cancer cell line), IM95 (human gastric cancer cell line), HT-29 (human colon cancer cell line), A549 (human lung cancer cell line), HCT116 (human colon cancer cell line), MDA-MB-231 (human breast cancer cell line), and HepG2 (human liver cancer cell line) were used. Each type of cancer cells were inoculated at 1×10^4 into a 96-well plate and incubated for 16 hours. The incubated cells were treated with an anti-CD300c monoclonal antibody and a chemotherapeutic agent in combination for 8 hours, and then treated with rapamycin for 48 hours. The degree of survival of cancer cells was identified by fluorescence analysis using Annexin V and propidium iodide (PI).
as §2, with “gemcitabine” for “a chemotherapeutic agent”, “The incubated cells were treated with an anti-CD300c monoclonal antibody and a chemotherapeutic agent in combination for 8 hours, and then treated with rapamycin for 48 hours.” left out
In order to identify whether the combined treatment with an anti-CD300c monoclonal antibody and paclitaxel can inhibit cancer cell apoptosis resistance, MKN45 (human gastric cancer cell line), IM95 (human gastric cancer cell line), HT-29 (human colon cancer cell line), A549 (human lung cancer cell line), HCT116 (human colon cancer cell line), MDA-MB-231 (human breast cancer cell line), and HepG2 (human liver cancer cell line) were used. […] The degree of survival of cancer cells was identified by fluorescence analysis using Annexin V and propidium iodide (PI).

[3] = test system: A549 (human lung cancer cell line); assay: A549 cell proliferation analysis, anti-CD300c antibody with chemotherapeutic agent; assay type: cell-based; conditions: 5 days
Description: In order to identify the cancer cell growth inhibitory effect by combined treatment with an anti-CD300c monoclonal antibody and sorafenib, cell proliferation analysis was performed using A549 (human lung cancer cell line). Into a 96-well plate, 20,000 cancer cells were inoculated and treated with 10 ug/mL anti-CD300c monoclonal antibody and 9 μM sorafenib, followed by incubation for 5 days. After the incubation, 10 μL of CCK-8 (DOJINDO) was added to each well, followed by incubation for 4 hours, and the absorbance was measured at 450 nm.
In order to identify the cancer cell growth inhibitory effect by combined treatment with an anti-CD300c monoclonal antibody and gemcitabine, cell proliferation analysis was performed using A549 (human lung cancer cell line). The cells were treated with the anti-CD300c antibody in combination with 1.9 μM gemcitabine for 5 days, and then 10 μL of CCK-8 (DOJINDO) was added to each well, followed by incubation for 4 hours, and the absorbance was measured at 450 nm.
In order to identify the cancer cell growth inhibitory effect by combined treatment with an anti-CD300c monoclonal antibody and paclitaxel, cell proliferation analysis was performed using A549 (human lung cancer cell line). The cells were treated with the anti-CD300c monoclonal antibody in combination with paclitaxel and incubated for 5 days. Thereafter, 10 μL of CCK-8 (DOJINDO) was added to each well, followed by incubation for 4 hours, and the absorbance was measured at 450 nm.

[4] = test system: CT26 cells (mouse colon cancer cell line); assay: In vivo anticancer effect in huCD34-NSG mice bearing CT26 cells; design: species or system humanized mouse models (huCD34-NSG mice); conditions: antibody 25 mg/kg, chemotherapeutic agents 10 mg/kg, i.p. twice a week, four times
Description: In order to identify the anticancer effect under in vivo conditions by the combined treatment with an anti-CD300c monoclonal antibody and a chemotherapeutic agent, human solid tumor xenograft models were prepared by subcutaneous injection of 1×10^6 CT26 cells (mouse colon cancer cell line) to humanized mouse models (huCD34-NSG mice). From 3 days after the administration of cancer cells, the mice were divided into a group administered 25 mg/kg anti-CD300c monoclonal antibody alone, groups administered the chemotherapeutic agents sorafenib, gemcitabine, and paclitaxel at 10 mg/kg for each, groups administered an anti-CD300c monoclonal antibody and chemotherapeutic agents, and a non-administered group. After the intraperitoneal administration with the anti-CD300c monoclonal antibody and each of the chemotherapeutic agents alone or in combination twice a week, a total of four times, the solid tumor tissue was isolated from the mice to measure the size thereof to identify the therapeutic effect of the anti-CD300c monoclonal antibody alone and the effects of the combined administration with existing chemotherapeutic agents.

Compound | degree of migration inhibition ([1]; paclitaxel experiment) [%] | cancer cell growth inhibitory effect (A549 cells) | increase in MFI compared with hIgG1 isotype control group ([2]; paclitaxel experiment) [%] | cancer cell growth inhibitory rate ([3]; A549, paclitaxel experiment) [%] | tumor inhibition rate [4] [%] | degree of migration inhibition ([1]; gemcitabine experiment) [%] | increase in MFI compared with hIgG1 isotype control group ([2]; gemcitabine experiment) [%] | inhibition at 1.9 µM ([3]; Homo sapiens, 120 h, A549, gemcitabine 1.9 μM, read-out: cancer cell growth inhibitory rate) [%] | degree of migration inhibition ([1]; sorafenib experiment) [%] | increase in MFI compared with hIgG1 isotype control group ([2]; sorafenib experiment) [%] | inhibition at 9 µM ([3]; Homo sapiens, 120 h, A549, antibody 10 ug/mL, sorafenib 9 μM, read-out: cancer cell growth inhibitory rate) [%]
CC(=O)O[C@H]1C(=O)[C@@]2(C)[C@H]([C@H](OC(=O)c3ccccc3)[C@]3(O)C[C@H](OC(=O)[C@H](O)[C@@H](NC(=O)c4ccccc4)c4ccccc4)C(C)=C1C3(C)C)[C@]1(OC(C)=O)CO[C@@H]1C[C@@H]2O [paclitaxel] | 20 | concentration-dependent cancer cell growth inhibitory effect | 19 | 24 | 21 | – | – | – | – | – | –
Nc1ccn([C@@H]2O[C@H](CO)[C@@H](O)C2(F)F)c(=O)n1 [gemcitabine] | – | concentration-dependent cancer cell growth inhibitory effect | – | – | 25 | 28 | 21 | 38 | – | – | –
CNC(=O)c1cc(Oc2ccc(NC(=O)Nc3ccc(Cl)c(C(F)(F)F)c3)cc2)ccn1 [sorafenib] | – | concentration-dependent cancer cell growth inhibitory effect | – | – | 22 | – | – | – | 32 | 21 | 45

— patent publication US20240254220A1, “COMBINED THERAPY USING ANTI-CD300C ANTIBODY” (CentricsBio, Inc., priority 2021, published 2024)
